Assay: Cytotoxicity evaluation, CCK analysis kit
Type: cell-based
Conditions: human, MM.1S (CRL-2974) multiple myeloma cells; MM.1S cells, treated for 3 days
Procedure: The MM.1S (CRL-2974) cell line, which is a human multiple myeloma cell line, was purchased from the American Type Culture Collection (ATCC, Manassas, VA, USA) and used, and incubated using RPMI1640 medium (Corning, MD, USA) supplemented with 10% fatal bovine serum (Corning, MD, USA), 100 U/ml of penicillin (Corning, MD, USA), and 100 μg/ml of streptomycin (Corning, MD, USA) at 37° C. in a 5% CO2 incubator for 24 hours.

Nc1cccc2c1C(=O)N(C1CCC(=O)NC1=O)C2=O (racemic) [pomalidomide, (R,S)-4-amino-2-(2,6-dioxopiperidin-3-yl)isoindole-1,3-dione, reference compound]
IC50 at 3 days: 69 nM

Source: patent US20250161286A1 (AEVIS BIO, INC., priority 2022, published 2025)
